# Molecular target: T1, hvYvoF (YvoF from Haloferax volcanii) (Haloferax volcanii, UniProt D4GZM3)
# T1 construct: full length, C-terminal His6 tag, pTA1228 vector, NdeI/XhoI; homologous expression in H. volcanii H1424, IMAC; printed cloning primers encode N-terminus MTDDDAAP and C-terminus DETDGA before LE of the XhoI site
# Test: […]-GGG acetylation, TLC and autoradiography
# Format: biochemical
# Conditions: acetyl-CoA 0.25 mM, MgCl2 10 mM, 1300 mM NaCl, 0.2% Tween80, pH 8.0, 40 °C; labelled compound
# T1 sequence (D4GZM3 entry or part of it): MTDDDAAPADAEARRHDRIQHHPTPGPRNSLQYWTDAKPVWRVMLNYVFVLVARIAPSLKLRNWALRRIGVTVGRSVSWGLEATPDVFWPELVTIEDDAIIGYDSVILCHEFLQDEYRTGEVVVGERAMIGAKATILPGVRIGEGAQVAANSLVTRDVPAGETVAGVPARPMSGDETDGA
structure (smiles),measurement,value
"CC(C)=CCC/C(C)=C/CC/C(C)=C/CC/C(C)=C/COC[C@H](O)CO [GGG, geranylgeranylglycerol]","14C-GGG acetylation, TLC and autoradiography",GGG was gradually diacetylated (to Ac2‐GGG) by hvYvoF with increasing incubation time
